{"source": "ChEMBL document CHEMBL1833872", "about": "“Improved synthesis and biological evaluation of chelator-modified α-MSH analogs prepared by copper-free click chemistry” (Bioorg Med Chem Lett, 2011)", "target": "Melanocyte-stimulating hormone receptor (Mus musculus, UniProt Q01727)", "sequence (Q01727 whole entry)": "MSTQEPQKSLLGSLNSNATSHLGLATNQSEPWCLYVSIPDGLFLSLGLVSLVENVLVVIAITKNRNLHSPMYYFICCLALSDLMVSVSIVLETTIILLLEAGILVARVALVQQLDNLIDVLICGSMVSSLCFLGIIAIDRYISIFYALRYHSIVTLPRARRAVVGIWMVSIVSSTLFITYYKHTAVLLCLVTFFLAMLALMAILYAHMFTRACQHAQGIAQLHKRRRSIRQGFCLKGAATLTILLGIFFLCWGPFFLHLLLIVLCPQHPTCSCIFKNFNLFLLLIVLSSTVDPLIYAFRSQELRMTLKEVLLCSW", "assay": "Displacement of [125I]-[Nle4-D-Phe7]-alpha-MSH from MC1R in mouse B16-F10 cells after 1.5 hrs by gamma counting", "type": "cell-based", "data": [{"molecule": "CCCC[C@H](NC(=O)[C@H](CO)NC(=O)[C@H](Cc1ccc(O)cc1)NC(=O)[C@H](CO)NCCCCCCN=[N+]=[N-])C(=O)N[C@@H](CCC(=O)O)C(=O)N[C@@H](Cc1cnc[nH]1)C(=O)N[C@H](Cc1ccccc1)C(=O)N[C@@H](CCCN=C(N)N)C(=O)N[C@@H](Cc1c[nH]c2ccccc12)C(=O)NCC(=O)N[C@@H](CCCCN)C(=O)N1CCC[C@H]1C(=O)N[C@H](C(N)=O)C(C)C", "values": [{"measurement": "IC50", "result": 0.25, "unit": "nM"}]}]}
